Reference: PMC4791841, “Nanomolar Inhibitors of Trypanosoma brucei RNA Triphosphatase” (mBio, 2016)
pIC50: −log10 of the molar value. Read-outs that look alike come from different tables or passages of the source.

Key:
MimiCE = target: T1, MimiCE (Acanthamoeba polyphaga mimivirus, UniProt Q5UQX1); test: biochemical; assay type: biochemical; conditions: for IC50/IC50 TbCet1, MimiCE: ratio in parentheses;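 for all read-outs here: mimivirus capping enzyme triphosphatase ATPase reaction, radiolabeled ATP hydrolysis to Pi quantified by TLC after 10 min, normalized to no-inhibitor control with 5% DMSO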
T1 construct: the N-terminal RTPase domain (amino acids [aa] 1 to 237) of mimivirus capping enzyme (MimiCE); HisSmt3 (N, cleaved yes); made in house; host or cells: Escherichia coli
T1 sequence (Q5UQX1 1-237): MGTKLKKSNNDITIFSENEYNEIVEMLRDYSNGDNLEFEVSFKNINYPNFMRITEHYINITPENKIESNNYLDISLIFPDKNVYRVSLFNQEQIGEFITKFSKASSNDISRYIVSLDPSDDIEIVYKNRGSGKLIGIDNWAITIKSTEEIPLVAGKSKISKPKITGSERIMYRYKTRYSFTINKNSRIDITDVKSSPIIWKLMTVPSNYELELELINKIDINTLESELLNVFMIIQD

SceCet1 = target: T2, SceCet1 (Saccharomyces cerevisiae, UniProt O13297); test: TLC assay for 32Pi release from [γ-32P]ATP, SceCet1; assay type: biochemical; conditions: for IC50/IC50 TbCet1, SceCet1: ratio in parentheses
T2 construct: C-terminal catalytic domain (aa 241 to 539) of S. cerevisiae RTPase (SceCet1); made in house; host or cells: Escherichia coli
T2 sequence (O13297 241-539): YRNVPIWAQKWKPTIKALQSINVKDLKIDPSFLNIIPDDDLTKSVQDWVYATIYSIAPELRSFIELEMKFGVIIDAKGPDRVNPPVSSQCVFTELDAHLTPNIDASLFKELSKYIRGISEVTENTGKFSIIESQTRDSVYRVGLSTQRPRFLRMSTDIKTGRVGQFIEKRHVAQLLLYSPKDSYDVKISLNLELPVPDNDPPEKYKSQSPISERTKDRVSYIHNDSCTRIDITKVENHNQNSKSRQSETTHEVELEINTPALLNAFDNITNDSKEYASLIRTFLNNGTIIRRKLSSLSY

CthTTM = target: T3, CthTTM (Acetivibrio thermocellus, UniProt A3DIJ8); test: TLC assay for 32Pi release from [γ-32P]ATP, CthTTM; assay type: biochemical, Clostridium thermocellum; conditions: for IC50/IC50 TbCet1, CthTTM: ratio in parentheses
T3 sequence (A3DIJ8 1-156): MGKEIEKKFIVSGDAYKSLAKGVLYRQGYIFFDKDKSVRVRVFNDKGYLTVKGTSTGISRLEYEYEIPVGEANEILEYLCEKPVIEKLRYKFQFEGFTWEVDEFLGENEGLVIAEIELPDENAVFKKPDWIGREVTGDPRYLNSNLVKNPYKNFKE

Lef4 = target: T4, Lef4 (Autographa californica nuclear polyhedrosis virus, UniProt P41477); test: TLC assay for 32Pi release from [γ-32P]ATP, Lef4; assay type: biochemical, Autographa californica nucleopolyhedrovirus (AcNPV); conditions: for IC50/IC50 TbCet1, Lef4: ratio in parentheses;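 for all read-outs here: Lef4 RNA triphosphatase cleaving radiolabelled ATP over 10 min at 37°C, hydrolysis set relative to inhibitor-free 5% DMSO controls, comparisons made against TbCet1 tested the same way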
T4 construct: the N-terminal RTPase domain (aa 1 to 236) of AcNPV Lef4 capping enzyme; HisSmt3 (N, cleaved yes); made in house; host or cells: Escherichia coli
T4 sequence (P41477 1-236): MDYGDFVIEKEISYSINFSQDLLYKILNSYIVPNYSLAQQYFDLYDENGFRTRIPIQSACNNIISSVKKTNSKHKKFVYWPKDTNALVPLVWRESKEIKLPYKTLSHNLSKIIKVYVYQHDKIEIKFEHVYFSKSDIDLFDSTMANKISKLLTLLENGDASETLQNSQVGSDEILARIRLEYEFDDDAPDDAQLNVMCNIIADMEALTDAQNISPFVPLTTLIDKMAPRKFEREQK

TbCet1 = target: T5, TbCet1 (Trypanosoma brucei brucei, UniProt Q582T2); test: TLC assay for 32Pi release from [γ-32P]ATP, TbCet1; conditions: for pIC50: 2.2 nM TbCet1, 0.2 mM ATP, 2 mM Mn2+, 10 min 37°C; for inhibition of TbCet1 (in words): 32P phosphate release assay
T5 sequence (Q582T2 1-253): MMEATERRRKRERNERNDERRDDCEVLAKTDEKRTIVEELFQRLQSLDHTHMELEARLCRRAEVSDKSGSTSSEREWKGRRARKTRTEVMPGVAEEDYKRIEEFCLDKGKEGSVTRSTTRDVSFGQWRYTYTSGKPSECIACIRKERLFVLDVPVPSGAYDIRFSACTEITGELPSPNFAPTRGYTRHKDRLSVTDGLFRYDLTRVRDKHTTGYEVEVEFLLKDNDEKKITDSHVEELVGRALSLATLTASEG

[1] = read-out: IC50 MimiCE, 7 nM MimiCE, 37°C
[2] = read-out: IC50 SceCet1, 25 nM SceCet1, 30°C
[3] = read-out: IC50 CthTTM, 500 nM CthTTM, 37°C
[4] = 50 nM Lef4, 37°C, read-out: IC50 Lef4
[5] = read-out: IC50 TbCet1 by 32P assay
[6] = 500 nM CthTTM, 37°C, read-out: IC50 CthTTM
[7] = 25 nM SceCet1, 30°C, read-out: IC50 SceCet1

O=C(Oc1cc(C(=O)O[C@@H]2C[C@@](O)(C(=O)O)C[C@@H](OC(=O)c3cc(O)c(O)c(O)c3)[C@@H]2O)cc(O)c1O)c1cc(O)c(O)c(O)c1 [Compound 1F, 3-galloyl,5-galloyl-galloylquinic acid]
IC50/IC50 TbCet1, MimiCE (MimiCE): 15
pIC50 (MimiCE; [1]): 5.47
pIC50 (SceCet1; [2]): < 3.30
IC50/IC50 TbCet1, CthTTM (CthTTM): 95
pIC50 (CthTTM; [3]): 4.68
pIC50 (Lef4; [4]): 4.48
IC50/IC50 TbCet1, Lef4 (Lef4): 150

O=C(/C=C/c1ccc(O)c(O)c1)O[C@@H]1C[C@@](O)(C(=O)O)C[C@@H](O)[C@@H]1O [Compound 1T, 5-caffeoylquinic acid]
pIC50 (TbCet1; [5]): < 3.30

CC(=O)O[C@@]12C[C@@H](OC(=O)/C=C/c3ccc(O)c(O)c3)[C@@H](OC(=O)/C=C/c3ccc(O)c(O)c3)[C@@H](C1)OC2=O [Compound 6C, 1-acetyl,4,5-dicaffeoylquinide]
pIC50 (MimiCE): 4.82
IC50/IC50 TbCet1, MimiCE (MimiCE): 4
pIC50 (SceCet1): 4.85
IC50/IC50 TbCet1, SceCet1 (SceCet1): 4
pIC50 (CthTTM): 4.34
IC50/IC50 TbCet1, CthTTM (CthTTM): 13
pIC50 (Lef4; [4]): 4.68
IC50/IC50 TbCet1, Lef4 (Lef4): 6
pIC50 (TbCet1; IC50 TbCet1 by 32P assay): 5.44
fold lowered potency against TbCet1 versus compound 6A (TbCet1; acetate for the R1 caffeic acid): 30 fold

O=C(/C=C/c1ccccc1)O[C@@H]1C[C@](OC(=O)/C=C/c2ccccc2)(C(=O)O)C[C@@H](OC(=O)/C=C/c2ccccc2)[C@H]1OC(=O)/C=C/c1ccccc1 [Compound 1I, tetracinnamoylquinic acid]
pIC50 (MimiCE): 4.77
IC50/IC50 TbCet1, MimiCE (MimiCE): 11
pIC50 (SceCet1): < 3.30
pIC50 (CthTTM): 4.77
IC50/IC50 TbCet1, CthTTM (CthTTM): 11
pIC50 (Lef4; [4]): 5.22
IC50/IC50 TbCet1, Lef4 (Lef4): 4
fold less potent as TbCet1 inhibitor than tetracaffeoylquinic acid (compound 1A) (TbCet1): 120 fold
pIC50 (TbCet1; IC50 TbCet1 by 32P assay): 5.80

O=C(O)/C=C/c1ccc(O)c(O)c1 [Compound 3B, caffeic acid]
pIC50 (MimiCE): < 3.30
activity against MimiCE (in words) (MimiCE): inactive
pIC50 (SceCet1): < 3.30
pIC50 (CthTTM; [6]): 3.51
pIC50 (Lef4): 4.12
pIC50 (TbCet1; IC50 TbCet1 by 32P assay): 4.54

COc1cc(C=CC(=O)OC2[C@H](O)CC(O)(C(=O)O)C[C@H]2O)ccc1O (stereo partly shown) [Compound 1P, 4-feruoylquinic acid]
fold less effective against TbCet1 than 5-feruoylquinic acid (TbCet1): 13 fold
pIC50 (TbCet1; [5]): 3.80

O=C(O)[C@]1(O)C[C@@H](O)[C@@H](O)[C@H](O)C1 [Quinic acid, reference compound]
inhibition of TbCet1 (in words) (TbCet1): no inhibition

O=C(C=Cc1ccccc1)OC1C=C(C(=O)O)CC(OC(=O)C=Cc2ccccc2)C1O (stereo not shown) [Compound 6D, 3,5-dicannamolylshikimate]
inhibition of TbCet1 (in words) (TbCet1): did not inhibit
pIC50 (TbCet1; [5]): < 3.30

COc1ccc(/C=C/C(=O)O[C@@H]2C[C@@](O)(C(=O)O)C[C@@H](O)[C@@H]2O)cc1O [Compound 1J, 5-p-feruoylquinic acid]
pIC50 (SceCet1; [7]): < 3.30
pIC50 (CthTTM; [6]): < 3.30
pIC50 (TbCet1; [5]): 5.62

O=C(OC1[C@H](OC(=O)c2ccccc2)CC(OC(=O)c2ccccc2)(C(=O)O)C[C@H]1OC(=O)c1ccccc1)c1ccccc1 (stereo partly shown) [Compound 1K]
pIC50 (MimiCE): 4.70
IC50/IC50 TbCet1, MimiCE (MimiCE): 3
pIC50 (SceCet1): < 3.30
pIC50 (CthTTM): 4.14
IC50/IC50 TbCet1, CthTTM (CthTTM): 12
pIC50 (Lef4; [4]): 4.34
IC50/IC50 TbCet1, Lef4 (Lef4): 8
pIC50 (TbCet1; IC50 TbCet1 by 32P assay): 5.24

COc1cc(/C=C/C(=O)O[C@@H]2C[C@](O)(C(=O)O)C[C@@H](O)[C@H]2O)ccc1O [Compound 1L, 5-feruoylquinic acid]
pIC50 (MimiCE; 7 nM MimiCE, 37°C, read-out: IC50 MimiCE): < 3.30
pIC50 (SceCet1; [7]): < 3.30
pIC50 (CthTTM; [6]): < 3.30
pIC50 (Lef4; [4]): < 3.30
pIC50 (TbCet1; [5]): 4.92

O=C(/C=C/c1ccc(O)c(O)c1)O[C@@H]1C[C@](OC(=O)/C=C/c2ccc(O)c(O)c2)(C(=O)O)C[C@@H](OC(=O)/C=C/c2ccc(O)c(O)c2)[C@H]1O [Compound 1E, 1,3,5-tricaffeoylquinic acid]
pIC50 (MimiCE): 5.08
IC50/IC50 TbCet1, MimiCE (MimiCE): 44
pIC50 (SceCet1; [7]): 4.54
IC50/IC50 TbCet1, SceCet1 (SceCet1): 153
pIC50 (CthTTM; [6]): 4.48
IC50/IC50 TbCet1, CthTTM (CthTTM): 174
pIC50 (Lef4; [4]): 5.25
IC50/IC50 TbCet1, Lef4 (Lef4): 29
pIC50 (TbCet1; IC50 TbCet1 by 32P assay): 6.72

O=C(/C=C/c1ccc(O)cc1)O[C@@H]1[C@H](O)C[C@@](O)(C(=O)O)C[C@H]1OC(=O)/C=C/c1ccc(O)cc1 [Compound 1H, 3,4-dicoumaroylquinic acid]
IC50/IC50 TbCet1, MimiCE (MimiCE): 40
pIC50 (MimiCE; [1]): 4.28
pIC50 (SceCet1; [2]): < 3.30
pIC50 (CthTTM; [3]): < 3.30
pIC50 (Lef4; [4]): 3.85
IC50/IC50 TbCet1, Lef4 (Lef4): 108
pIC50 (TbCet1; [5]): 5.89

O=C(O)c1cc(O)c(O)c(O)c1 [gallic acid, 3,4,5-trihydroxybenzoic acid, reference compound]
inhibition of TbCet1 (in words) (TbCet1): no inhibition

O=C(/C=C/c1ccc(O)cc1)O[C@@H]1CC(O)(C(=O)O)C[C@@H](OC(=O)/C=C/c2ccc(O)cc2)C1O (stereo partly shown) [Compound 1M, 3,5-dicoumaroylquinic acid]
pIC50 (MimiCE): < 3.30
pIC50 (SceCet1): < 3.30
pIC50 (CthTTM): < 3.30
pIC50 (Lef4; [4]): < 3.30
fold drop in potency of TbCet1 inhibition versus 3,5-dicaffeoylquinic acid (compound 1B) (TbCet1): 340 fold
pIC50 (TbCet1; IC50 TbCet1 by 32P assay): 4.62

O=C(/C=C/c1ccc(O)c(O)c1)OC1[C@H](OC(=O)/C=C/c2ccc(O)c(O)c2)CC(O)(C(=O)O)C[C@H]1OC(=O)/C=C/c1ccc(O)c(O)c1 (stereo in doubt) [Compound 1D, 3,4,5-Tricaffeoylquinic acid]
fold lower potency against MimiCE than against TbCet1 (MimiCE): 107 fold
IC50/IC50 TbCet1, MimiCE (MimiCE): 107
pIC50 (MimiCE; [1]): 4.80
fold lower potency against SceCet1 than against TbCet1 (SceCet1): 67 fold
pIC50 (SceCet1; [7]): 5.00
IC50/IC50 TbCet1, SceCet1 (SceCet1): 67
fold lower potency against CthTTM than against TbCet1 (CthTTM): 1,100 fold
pIC50 (CthTTM; [6]): 3.80
IC50/IC50 TbCet1, CthTTM (CthTTM): 1,067
fold lower potency against Lef4 than against TbCet1 (Lef4): 48 fold
pIC50 (Lef4; [4]): 5.14
IC50/IC50 TbCet1, Lef4 (Lef4): 48

O=C(/C=C/c1ccc(O)c(O)c1)O[C@@H]1[C@H](OC(=O)/C=C/c2ccc(O)c(O)c2)C[C@]2(OC(=O)/C=C/c3ccc(O)c(O)c3)C[C@H]1OC2=O [Compound 6A, 1,4,5-tricaffeoylquinide]
pIC50 (MimiCE): 5.70
IC50/IC50 TbCet1, MimiCE (MimiCE): 17
pIC50 (SceCet1): 5.70
IC50/IC50 TbCet1, SceCet1 (SceCet1): 17
pIC50 (CthTTM): 5.19
IC50/IC50 TbCet1, CthTTM (CthTTM): 53
pIC50 (Lef4; [4]): 5.59
IC50/IC50 TbCet1, Lef4 (Lef4): 22
pIC50 (TbCet1; IC50 TbCet1 by 32P assay): 6.92

O=C(/C=C/c1ccc(O)c(O)c1)O[C@@H]1C[C@](OC(=O)/C=C/c2ccc(O)c(O)c2)(C(=O)O)C[C@@H](O)[C@H]1O [Compound 1G, 1,3-dicaffeoylquinic acid]
IC50/IC50 TbCet1, MimiCE (MimiCE): 11
pIC50 (MimiCE; [1]): 5.43
pIC50 (SceCet1; [7]): < 3.30
pIC50 (CthTTM; [6]): 4.26
IC50/IC50 TbCet1, CthTTM (CthTTM): 162
pIC50 (Lef4; [4]): 4.66
IC50/IC50 TbCet1, Lef4 (Lef4): 65

O=C(Oc1cc(C(=O)O[C@@H]2C[C@@](O)(C(=O)O)C[C@@H](O)[C@@H]2O)cc(O)c1O)c1cc(O)c(O)c(O)c1 [Compound 1C, 5-galloyl-galloylquinic acid]
pIC50 (SceCet1; [2]): < 3.30
pIC50 (CthTTM; [3]): < 3.30
fold lower potency against Lef4 than against TbCet1 (Lef4): 680 fold
pIC50 (Lef4; [4]): 4.12
IC50/IC50 TbCet1, Lef4 (Lef4): 682
fold more potent as TbCet1 inhibitor than 5-galloylquinic acid (compound 1O) (TbCet1): 1,100 fold

COc1cc(/C=C/C(=O)OC2(C(=O)O)C[C@@H](O)C(O)[C@H](O)C2)ccc1O (stereo partly shown) [Compound 1R, 1-feruoylquinic acid]
inhibition of TbCet1 (in words) (TbCet1): inactive
pIC50 (TbCet1; [5]): < 3.30

O=C(/C=C/c1ccc(O)c(O)c1)O[C@@H]1CC(C(=O)O)=C[C@@H](O)[C@H]1O [Compound 6E, 5-caffeoylshikimate]
inhibition of TbCet1 (in words) (TbCet1): did not inhibit
pIC50 (TbCet1; [5]): < 3.30
